In patent publication EP4725946A1, “IRAK4 DEGRADATION AGENT AND USE THEREOF” (Guangzhou Unirise Pharmaceutical Co., Ltd., priority 2023, dated 2024):
Where two headings read alike, the source gives them in different places.

Columns and labels:
[1] = Pharmacokinetic study in mice; format: in vivo; conditions: male mice, plasma
Procedure: Six male mice weighing 20-30 g were randomly divided into two groups. One group received an intravenous (IV) administration of the test compound at a dose of 2 mg/kg, while the other group received an oral (gavage) administration at a dose of 10 mg/kg. Blood samples were collected at 0.083, 0.25, 0.5, 1, 2, 4, 6, 8, and 24 hours post-administration. Plasma samples were processed and analyzed using LC/MS/MS in MRM)mode. A validated standard curve was established for the quantitative determination of the target compound in plasma, enabling the generation of plasma drug concentration-time profiles. Pharmacokinetic parameters were calculated using WinNonlin software with a non-compartmental model.

IRAK4 protein = target: T1, IRAK4 protein (Homo sapiens, UniProt Q9NWZ3); experiment: IRAK4 Degradation Assay in THP-1 Cells (Western Blot); format: cell-based; set-up: endogenous in cells; host or cells: THP-1 cells
T1 sequence (Q9NWZ3 1-460): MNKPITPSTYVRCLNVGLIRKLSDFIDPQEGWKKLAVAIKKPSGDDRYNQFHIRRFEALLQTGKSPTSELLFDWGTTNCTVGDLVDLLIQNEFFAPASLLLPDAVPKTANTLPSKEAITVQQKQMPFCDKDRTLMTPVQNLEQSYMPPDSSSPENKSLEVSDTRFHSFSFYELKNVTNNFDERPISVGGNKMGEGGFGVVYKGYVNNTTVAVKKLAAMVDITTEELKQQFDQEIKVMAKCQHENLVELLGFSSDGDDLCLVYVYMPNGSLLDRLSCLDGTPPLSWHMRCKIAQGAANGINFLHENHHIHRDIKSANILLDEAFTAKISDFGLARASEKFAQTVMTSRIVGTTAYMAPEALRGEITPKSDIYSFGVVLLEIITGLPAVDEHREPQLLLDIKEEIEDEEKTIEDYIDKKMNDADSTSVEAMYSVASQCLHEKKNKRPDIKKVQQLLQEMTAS
Procedure: In a 6-well cell culture plate, an appropriate number of THP-1 cells were seeded. The plate was placed in a 5% CO2 incubator at 37°C for overnight culture. Then, the test compound's dimethyl sulfoxide solution was added, with the final concentration ranging from 0.0128 to 1000 nM. After continuous culture for 24 hours, the culture medium was removed, and the cells were collected in a 1.5 mL centrifuge tube. After adding lysis buffer and grinding thoroughly, the mixture was placed on ice for 30 minutes. It was then centrifuged at 15,000 xg and 4°C for 20 minutes. The supernatant was taken, and the level of IRAK4 protein was detected by Western Blot.

[2] = mouse, iv, i.v. (2 mg/kg), read-out: AUC0-t
[3] = mouse, po, p.o. (10 mg/kg), read-out: AUC0-t
[4] = mouse, po, p.o. (10 mg/kg), read-out: Cmax
[5] = THP-1, THP-1 cells, 24 hours, 0.0128 to 1000 nM, IRAK4 protein level by Western Blot, read-out: Dmax%
[6] = THP-1 cells, 24 hours, 0.0128 to 1000 nM, IRAK4 protein level by Western Blot, read-out: DC50
[7] = THP-1 cells, 24 hours, 0.0128 to 1000 nM, IRAK4 protein level by Western Blot, read-out: Dmax%
[8] = THP-1 cells, 24 hours, 0.0128 to 1000 nM, IRAK4 protein level by Western Blot

| Structure (SMILES) | Dmax (IRAK4 protein; [5]) | DC50 (IRAK4 protein; [6]) | Dmax (IRAK4 protein; [7]) | other results |
| --- | --- | --- | --- | --- |
| Cn1c(=O)n(C2CCC(=O)NC2=O)c2cccc(N3CCC(CN4CCC5(CC4)Cc4cc(NC(=O)c6cnn7cccnc67)c(N6CCC(CO)CC6)cc4O5)CC3)c21 (stereo not drawn) [Example 78] | 94% | 0.86 nM | – | half-life ([1]; mouse, iv, i.v. (2 mg/kg)): 33 h; AUC(0-t) [1, 2]: 32700 ng·h/mL; Tmax ([1]; mouse, po, p.o. (10 mg/kg)): 1 h; half-life ([1]; mouse, po, p.o. (10 mg/kg)): 6.58 h; AUC(0-t) [1, 3]: 44900 ng·h/mL; Cmax [1, 4]: 2600 ng/mL |
| Cn1c(=O)n(C2CCC(=O)NC2=O)c2cccc(CN3CCC(CCN4CCC5(CC4)Oc4cc(NC(=O)c6cnn7cccnc67)c(N6CCC(CO)CC6)cc4O5)CC3)c21 (stereo not drawn) [Compound 15] | – | 2.22 nM | 86% | half-life ([1]; mouse, iv, i.v. (2 mg/kg)): 22.2 h; AUC(0-t) [1, 2]: 14400 ng·h/mL; Tmax ([1]; mouse, po, p.o. (10 mg/kg)): 6 h; half-life ([1]; mouse, po, p.o. (10 mg/kg)): 23.6 h; AUC(0-t) [1, 3]: 23200 ng·h/mL; Cmax [1, 4]: 1320 ng/mL |
| Cn1c(=O)n(C2CCC(=O)NC2=O)c2cccc(C#CCO[C@H]3CC[C@H](CN4CCC5(CC4)Cc4cc(NC(=O)c6cnn7cc(Cl)cnc67)c(N6CCC(CO)CC6)cc4O5)CC3)c21 (stereo partly drawn) [Compound 37] | – | 3.32 nM | 90.5% | half-life ([1]; mouse, iv, i.v. (2 mg/kg)): 3.36 h; AUC(0-t) [1, 2]: 12100 ng·h/mL; Tmax ([1]; mouse, po, p.o. (10 mg/kg)): 4 h; half-life ([1]; mouse, po, p.o. (10 mg/kg)): 3.94 h; AUC(0-t) [1, 3]: 29300 ng·h/mL; Cmax [1, 4]: 2150 ng/mL |
| Cn1c(=O)n(C2CCC(=O)NC2=O)c2cccc(C#CCO[C@H]3CC[C@H](CN4CCC5(CC4)Cc4cc(NC(=O)c6cnc7cccnn67)c(N6CCC(CO)CC6)cc4O5)CC3)c21 (stereo partly drawn) [Compound 45] | – | 1.52 nM | 87.4% | AUC(0-t) ([1]; i.v. (2 mg/kg)): 3192 ng·h/mL; AUC(0-t) ([1]; p.o. (10 mg/kg)): 7391 ng·h/mL; Cmax ([1]; p.o. (10 mg/kg)): 1190 ng/mL; T1/2 ([1]; p.o. (10 mg/kg)): 4.40 h; half-life ([1]; mouse, iv, i.v. (2 mg/kg)): 2.02 h; Tmax ([1]; mouse, po, p.o. (10 mg/kg)): 2 h |
| Cn1c(=O)n(C2CCC(=O)NC2=O)c2cccc(N3CCN(C(=O)CN4CCC5(CC4)Cc4cc(NC(=O)c6cnn7cccnc67)c(N6CCC(CO)CC6)cc4O5)CC3)c21 (stereo not drawn) [Compound 70] | – | – | – | half-life ([1]; mouse, iv, i.v. (2 mg/kg)): 3.1 h; AUC(0-t) [1, 2]: 7880 ng·h/mL; Tmax ([1]; mouse, po, p.o. (10 mg/kg)): 2 h; half-life ([1]; mouse, po, p.o. (10 mg/kg)): 2.28 h; AUC(0-t) [1, 3]: 6680 ng·h/mL; Cmax [1, 4]: 870 ng/mL; DC50 (IRAK4 protein): 1.1 nM; Dmax (IRAK4 protein; THP-1): 91.2% |
| Cn1c(=O)n(C2CCC(=O)NC2=O)c2cccc(C#CCO[C@H]3CC[C@H](CN4CCC5(CC4)Cc4cc(NC(=O)c6cnn7cccnc67)c(N6CCC(CO)CC6)cc4O5)CC3)c21 (relative stereo) [Compound 34] | 90.6% | 2.2 nM | – | AUC(0-t) ([1]; i.v. (2 mg/kg)): 7155 ng·h/mL; T1/2 ([1]; i.v. (2 mg/kg)): 2.69 h; AUC(0-t) ([1]; p.o. (10 mg/kg)): 14793 ng·h/mL; Cmax ([1]; p.o. (10 mg/kg)): 1540 ng/mL; T1/2 ([1]; p.o. (10 mg/kg)): 3.70 h; Tmax ([1]; mouse, po, p.o. (10 mg/kg)): 2 h |
| Cn1c(=O)n(C2CCC(=O)NC2=O)c2cccc(C#CCO[C@H]3CC[C@H](CN4CCC5(CC4)Cc4cc(NC(=O)c6cnn7cccnc67)c(N6CCC(C(C)(C)O)CC6)cc4O5)CC3)c21 (stereo partly drawn) [Compound 41] | – | 3.86 nM | 90.5% | half-life ([1]; mouse, iv, i.v. (2 mg/kg)): 2.13 h; AUC(0-t) [1, 2]: 5120 ng·h/mL; Tmax ([1]; mouse, po, p.o. (10 mg/kg)): 2 h; half-life ([1]; mouse, po, p.o. (10 mg/kg)): 2.62 h; AUC(0-t) [1, 3]: 21200 ng·h/mL; Cmax [1, 4]: 2990 ng/mL |
| Cn1c(=O)n(C2CCC(=O)NC2=O)c2cccc(CN3CCC4(CC3)CN(CCN3CCC5(CC3)Cc3cc(NC(=O)c6cnn7cccnc67)c(N6CCC(CO)CC6)cc3O5)C4)c21 (stereo not drawn) [Compound 32] | – | – | 95.4% | DC50 (IRAK4 protein; [8]): 1.53 nM |
| Cn1c(=O)n(C2CCC(=O)NC2=O)c2cccc(C#CCO[C@H]3CC[C@H](CN4CCC5(CC4)Cc4cc(NC(=O)c6cnn7cc(C#N)cnc67)c(N6CCC(CO)CC6)cc4O5)CC3)c21 (stereo partly drawn) [Example 87] | – | 4.06 nM | 90% | – |
| Cn1c(=O)n(C2CCC(=O)NC2=O)c2cccc(CN3CCC(CCN4CCC5(CC4)Cc4cc(NC(=O)c6cnn7cccnc67)c(N6CCC(CO)CC6)cc4O5)CC3)c21 (stereo not drawn) [Compound 1] | 91.9% | 1.09 nM | – | – |
| Cn1c(=O)n(C2CCC(=O)NC2=O)c2cccc(C#CCOC3CCN(CCN4CCC5(Cc6cc(NC(=O)c7coc8cccnc78)c(N7CCC(CO)CC7)cc6O5)C4)CC3)c21 (stereo not drawn) [Compound 23] | – | 3.08 nM | 88.3% | – |
| Cn1c(=O)n(C2CCC(=O)NC2=O)c2cccc(C#CCO[C@H]3CC[C@H](CN4CCC5(CC4)Cc4cc(NC(=O)c6cnn7cccnc67)c(N6CCC(CO)CC6)cc4C5)CC3)c21 (stereo partly drawn) [Compound 53] | – | 2.77 nM | 77.5% | – |
| Cn1c(=O)n(C2CCC(=O)NC2=O)c2cccc(C3CCC(CN4CCC5(CC4)Cc4cc(NC(=O)c6cnn7cccnc67)c(N6CCC(CO)CC6)cc4O5)CC3)c21 (stereo not drawn) [Example 98] | 88.6% | 1.1 nM | – | – |
| O=C1CCC(N2Cc3c(CN4CCC(CCN5CCC6(CC5)Cc5cc(NC(=O)c7cnn8cccnc78)c(N7CCC(CO)CC7)cc5O6)CC4)cccc3C2=O)C(=O)N1 (stereo not drawn) [Compound 64] | 89.3% | 1.3 nM | – | – |
| Cn1c(=O)n(C2CCC(=O)NC2=O)c2cccc(C#CCOC3CCN(CCN4CCC5(CC4)Oc4cc(NC(=O)c6coc7cccnc67)c(N6CCC(CO)CC6)cc4O5)CC3)c21 (stereo not drawn) [Compound 29] | – | 7.12 nM | 92.8% | – |
| Cn1c(=O)n(C2CCC(=O)NC2=O)c2cccc(C#CCO[C@H]3CC[C@H](CN4CCC5(CC4)Cc4cc(NC(=O)c6cnn7cc(Cl)cnc67)c(N6CCC(O)CC6)cc4O5)CC3)c21 (stereo partly drawn) [Example 86] | – | 2.98 nM | 86.2% | – |
| O=C1CCC(N2Cc3cc(N4CCC(CN5CCC6(CC5)Cc5cc(NC(=O)c7cnn8cccnc78)c(N7CCC(CO)CC7)cc5O6)CC4)ccc3C2=O)C(=O)N1 (single isomer, unassigned) [Example 85] | – | 0.66 nM | – | Dmax% (IRAK4 protein; [8]): 89.8% |
| O=C1CCC(N2Cc3cc(N4CCC(CN5CCC6(CC5)Cc5cc(NC(=O)c7cnn8cccnc78)c(N7CCC(CO)CC7)cc5O6)CC4)ccc3C2=O)C(=O)N1 (single isomer, unassigned) [Example 84] | 88.3% | 1.13 nM | – | – |
| Cn1c(=O)n(C2CCC(=O)NC2=O)c2cccc(N3CCC(O)(CC(=O)N4CCC5(CC4)Cc4cc(NC(=O)c6cnn7cccnc67)c(N6CCC(CO)CC6)cc4O5)CC3)c21 (stereo not drawn) [Example 81] | 90.2% | 1.02 nM | – | – |
| COCC1CCN(c2cc3c(cc2NC(=O)c2cnn4cccnc24)CC2(CCN(C[C@H]4CC[C@H](OCC#Cc5cccc6c5n(C)c(=O)n6C5CCC(=O)NC5=O)CC4)CC2)O3)CC1 (stereo partly drawn) [Compound 44] | – | 6.38 nM | 84.9% | – |
| Cn1nc(N2CCC(=O)NC2=O)c2cccc(CN3CCC(CCN4CCC5(CC4)Cc4cc(NC(=O)c6coc7cccnc67)c(N6CCC(CO)CC6)cc4O5)CC3)c21 [Compound 62] | 82.8% | 7.34 nM | – | – |
| Cn1c(=O)n(C2CCC(=O)NC2=O)c2cccc(CN3CCC(CCN4CCC5(CC4)Cc4cc(NC(=O)c6cnn7cccnc67)c(N6CCN(CC(F)F)CC6)cc4O5)CC3)c21 (stereo not drawn) [Compound 6] | – | 9.65 nM | 85.1% | – |
| Cn1c(=O)n(C2CCC(=O)NC2=O)c2cccc(C#CCO[C@H]3CC[C@H](CN4CCC5(CC4)Cc4cc(NC(=O)c6cnn7cc(CO)cnc67)c(N6CCC(CO)CC6)cc4O5)CC3)c21 (stereo partly drawn) [Example 90] | – | 2.24 nM | 87.1% | – |
| Cn1c(=O)n(C2CCC(=O)NC2=O)c2cccc(C#CCO[C@H]3CC[C@@H](CN4CCC5(Cc6cc(NC(=O)c7cnn8cccnc78)c(N7CCC(CO)CC7)cc6O5)C4)CC3)c21 (stereo partly drawn) [Compound 58] | – | 3.69 nM | 85.6% | – |
| Cn1c(=O)n(C2CCC(=O)NC2=O)c2cccc(C#CCOC3CCN(CCN4CCC5(CC4)Cc4cc(NC(=O)c6coc7cccnc67)c(N6CCC(CO)CC6)cc4O5)CC3)c21 (stereo not drawn) [Compound 21] | – | 3.58 nM | 91.6% | – |
| Cn1c(=O)n(C2CCC(=O)NC2=O)c2cccc(C#CCOCCNCCN3CCC4(CC3)Cc3cc(NC(=O)c5cnn6cccnc56)c(N5CCC(CO)CC5)cc3O4)c21 (stereo not drawn) [Compound 59] | 88.6% | 1.17 nM | – | – |
| Cn1c(=O)n(C2CCC(=O)NC2=O)c2cccc(C#CCO[C@H]3CC[C@H](CN4CCC5(Cc6cc(NC(=O)c7coc8cccnc78)c(N7CCC(CO)CC7)cc6O5)C4)CC3)c21 (stereo partly drawn) [Compound 54] | – | 3.5 nM | 91.1% | – |
